Experimental data as given in the supplement of paper PMC6045584.
± gives the standard deviation of the averaged measurements.

What was measured:
[1] = compound: CN(C)CC[C@H](CSc1ccccc1)Nc1ccc(S(=O)(=O)NC(=O)c2ccc(N3CCN(Cc4ccccc4-c4ccc(Cl)cc4)CC3)cc2)cc1[N+](=O)[O-] [ABT-737]; assay: surviving fraction relative to DMSO-only wells; higher = less growth inhibition; conditions: exposure time: 5 days
In short: (§1)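 For each tumour cell line, log-phase cells were put into 384-well plates at 250–500 cells per well, then after 24 hours exposed continuously for five days to inhibitors at 0.5, 1, 5, 10, 50, 100, 500 and 1000 nM. Viability was assessed by CellTiter-Glo luminescence, with surviving fraction expressed relative to the median of DMSO-only wells. Lines were screened three times and retained only if replicate Pearson r exceeded 0.7 and median Z' exceeded 0.3.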

[2] = compound: C=CCNC1=C2C[C@@H](C)C[C@H](OC)[C@H](O)[C@@H](C)/C=C(\C)[C@H](OC(N)=O)[C@@H](OC)/C=C\C=C(/C)C(=O)NC(=CC1=O)C2=O [17-AAG]; assay: as above; conditions: exposure time: 5 days
In short: as §1

| Test System | surviving fraction ([1]; 0.5 nM) | surviving fraction ([1]; 1 nM) | surviving fraction ([1]; 5 nM) | surviving fraction ([1]; 10 nM) | surviving fraction ([1]; 50 nM) | surviving fraction ([1]; 100 nM) | surviving fraction ([1]; 500 nM) | surviving fraction ([1]; 1000 nM) | surviving fraction ([2]; 0.5 nM) | surviving fraction ([2]; 1 nM) | surviving fraction ([2]; 5 nM) | surviving fraction ([2]; 10 nM) | surviving fraction ([2]; 50 nM) | surviving fraction ([2]; 100 nM) | surviving fraction ([2]; 500 nM) | surviving fraction ([2]; 1000 nM) |
| --- | --- | --- | --- | --- | --- | --- | --- | --- | --- | --- | --- | --- | --- | --- | --- | --- |
| SG27 HEADNECK | 1.26 ± 0.26 | 1.12 ± 0.12 | 1.19 ± 0.029 | 1.16 ± 0.079 | 1.15 ± 0.11 | 1.08 ± 0.13 | 0.88 ± 0.11 | 0.797 ± 0.059 | 1.046 ± 0.0051 | 1.07 ± 0.073 | 0.913 ± 0.039 | 0.93 ± 0.026 | 1.31 ± 0.16 | 1.1 ± 0.24 | 0.274 ± 0.044 | 0.111 ± 0.014 |
| SG28 HEADNECK | 1.25 ± 0.068 | 1.17 ± 0.064 | 1.02 ± 0.07 | 1.081 ± 0.0014 | 1.036 ± 0.0064 | 1.09 ± 0.021 | 1.13 ± 0.14 | 1.04 ± 0.016 | 0.93 ± 0.048 | 0.918 ± 0.069 | 0.86 ± 0.05 | 0.776 ± 0.064 | 0.551 ± 0.11 | 0.322 ± 0.016 | 0.0967 ± 0.014 | 0.0863 ± 0.0032 |
| SG31 HEADNECK | 1.2 ± 0.19 | 1.51 ± 0.051 | 1.08 ± 0.21 | 1.04 ± 0.025 | 1.03 ± 0.18 | 1.2 ± 0.27 | 1.27 ± 0.25 | 1.12 ± 0.11 | 0.87 ± 0.024 | 0.911 ± 0.052 | 0.874 ± 0.15 | 0.753 ± 0.14 | 0.642 ± 0.064 | 0.302 ± 0.034 | 0.047 ± 0.0092 | 0.0317 ± 0.0029 |
| SG32 HEADNECK | 1.02 ± 0.13 | 0.981 ± 0.024 | 1.04 ± 0.11 | 1.17 ± 0.15 | 0.963 ± 0.025 | 1.23 ± 0.51 | 1.07 ± 0.0099 | 0.954 ± 0.045 | 0.955 ± 0.12 | 0.834 ± 0.19 | 0.875 ± 0.16 | 0.881 ± 0.14 | 0.528 ± 0.097 | 0.259 ± 0.042 | 0.0457 ± 0.0023 | 0.034 ± 0.0044 |
| SG43 HEADNECK | 0.947 ± 0.12 | 1.06 ± 0.25 | 0.889 ± 0.076 | 0.875 ± 0.057 | 0.769 ± 0.14 | 0.801 ± 0.069 | 0.656 ± 0.24 | 0.752 ± 0.34 | 1.1 ± 0.2 | 1.1 ± 0.22 | 1.05 ± 0.043 | 0.801 ± 0.25 | 0.302 ± 0.069 | 0.074 ± 0.034 | 0.03 ± 0.004 | 0.028 ± 0.0062 |
| SIHA CERVIX | 1.02 ± 0.017 | 1.1 ± 0.052 | 1.12 ± 0.033 | 1.08 ± 0.14 | 1.14 ± 0.056 | 1.2 ± 0.087 | 1.19 ± 0.056 | 1.14 ± 0.043 | 1.01 ± 0.073 | 0.939 ± 0.033 | 0.969 ± 0.18 | 0.895 ± 0.032 | 0.581 ± 0.077 | 0.211 ± 0.012 | 0.171 ± 0.0082 | 0.18 ± 0.017 |
| SJSA1 BONE | 1.59 ± 0.063 | 1.68 ± 0.045 | 1.63 ± 0.06 | 1.72 ± 0.049 | 1.66 ± 0.078 | 1.81 ± 0.12 | 1.74 ± 0.045 | 1.81 ± 0.14 | 0.84 ± 0.049 | 0.865 ± 0.064 | 0.872 ± 0.023 | 0.846 ± 0.029 | 0.217 ± 0.02 | 0.106 ± 0.0032 | 0.0517 ± 0.0055 | 0.0433 ± 0.0011 |
| SKBR3 BREAST | 1.04 ± 0.035 | 1.03 ± 0.07 | 0.988 ± 0.13 | 1.19 ± 0.13 | 0.976 ± 0.071 | 1.15 ± 0.09 | 1.01 ± 0.14 | 1.13 ± 0.13 | 0.752 ± 0.21 | 0.76 ± 0.055 | 0.497 ± 0.033 | 0.365 ± 0.026 | 0.25 ± 0.018 | 0.205 ± 0.013 | 0.177 ± 0.019 | 0.173 ± 0.0038 |
| SNU475 LIVER | 1.07 ± 0.017 | 1 ± 0.018 | 1.08 ± 0.083 | 1.05 ± 0.064 | 1.02 ± 0.039 | 1 ± 0.12 | 1.01 ± 0.061 | 0.972 ± 0.047 | 0.864 ± 0.017 | 0.884 ± 0.013 | 0.792 ± 0.036 | 0.418 ± 0.062 | 0.259 ± 0.02 | 0.234 ± 0.0059 | 0.248 ± 0.013 | 0.23 ± 0.029 |
| SUM44 BREAST | 1.28 ± 0.43 | 1.31 ± 0.53 | 1.32 ± 0.44 | 1.3 ± 0.53 | 1.28 ± 0.48 | 1.25 ± 0.48 | 1.2 ± 0.42 | 1.1 ± 0.34 | 0.897 ± 0.02 | 0.863 ± 0.051 | 0.759 ± 0.026 | 0.522 ± 0.026 | 0.539 ± 0.021 | 0.494 ± 0.014 | 0.456 ± 0.017 | 0.464 ± 0.012 |
| SUM149 BREAST | 1.02 ± 0.036 | 1.07 ± 0.023 | 1.1 ± 0.061 | 1.08 ± 0.051 | 0.952 ± 0.058 | 1.07 ± 0.075 | 0.97 ± 0.049 | 0.961 ± 0.056 | 0.924 ± 0.031 | 0.964 ± 0.026 | 0.87 ± 0.053 | 0.35 ± 0.018 | 0.0457 ± 0.0049 | 0.034 ± 0.004 | 0.0233 ± 0.0023 | 0.0237 ± 0.00058 |
| SUM149.B1*.S BREAST | 1.13 ± 0.027 | 1.1 ± 0.072 | 1.16 ± 0.021 | 1.12 ± 0.034 | 1.12 ± 0.057 | 1.11 ± 0.069 | 1.1 ± 0.024 | 1.16 ± 0.055 | 0.9335 ± 0.0026 | 0.893 ± 0.032 | 0.905 ± 0.038 | 0.83 ± 0.017 | 0.201 ± 0.021 | 0.131 ± 0.018 | 0.083 ± 0.019 | 0.0832 ± 0.014 |
| SUM159 BREAST | 1.1 ± 0.018 | 1.1 ± 0.028 | 1.12 ± 0.027 | 1.09 ± 0.026 | 1.095 ± 0.006 | 1.09 ± 0.021 | 1.11 ± 0.018 | 1.08 ± 0.014 | 1.02 ± 0.087 | 0.998 ± 0.046 | 0.993 ± 0.062 | 0.946 ± 0.044 | 0.0997 ± 0.0055 | 0.0537 ± 0.0086 | 0.053 ± 0.0046 | 0.0527 ± 0.01 |
| SYO1 SYNOVIAL | 1.03 ± 0.048 | 1.039 ± 0.01 | 1.03 ± 0.07 | 1.025 ± 0.0082 | 1.04 ± 0.08 | 0.984 ± 0.048 | 0.752 ± 0.03 | 0.504 ± 0.024 | 0.8369 ± 0.0068 | 0.819 ± 0.049 | 0.8483 ± 0.0038 | 0.8 ± 0.038 | 0.488 ± 0.042 | 0.183 ± 0.012 | 0.0407 ± 0.0017 | 0.0322 ± 0.0014 |
| T47D BREAST | 1.13 ± 0.026 | 1.08 ± 0.031 | 1.08 ± 0.08 | 1.08 ± 0.025 | 1.03 ± 0.2 | 1.089 ± 0.0036 | 1.11 ± 0.11 | 1.05 ± 0.035 | 0.943 ± 0.058 | 0.914 ± 0.035 | 0.944 ± 0.011 | 0.958 ± 0.046 | 0.928 ± 0.023 | 0.747 ± 0.032 | 0.4288 ± 0.004 | 0.425 ± 0.0062 |
| U2OS BONE | 1.04 ± 0.048 | 1.04 ± 0.026 | 1.06 ± 0.055 | 1.04 ± 0.012 | 1.08 ± 0.035 | 1.11 ± 0.024 | 1.06 ± 0.029 | 1.02 ± 0.038 | 0.943 ± 0.049 | 0.9303 ± 0.0058 | 0.991 ± 0.018 | 0.886 ± 0.05 | 0.627 ± 0.0092 | 0.143 ± 0.004 | 0.0713 ± 0.0021 | 0.0763 ± 0.0032 |
| VCAP PROSTATE | 1.03 ± 0.065 | 0.971 ± 0.075 | 1.14 ± 0.15 | 1.04 ± 0.047 | 1.17 ± 0.078 | 1.13 ± 0.19 | 1.01 ± 0.1 | 0.94 ± 0.047 | 0.94 ± 0.075 | 0.969 ± 0.054 | 1.12 ± 0.17 | 1.03 ± 0.12 | 0.683 ± 0.066 | 0.19 ± 0.018 | 0.167 ± 0.016 | 0.183 ± 0.03 |
| VP229 BREAST | 1.1 ± 0.09 | 1.12 ± 0.06 | 1.18 ± 0.11 | 1.12 ± 0.049 | 1.22 ± 0.11 | 1.17 ± 0.11 | 1.17 ± 0.017 | 1.13 ± 0.063 | 0.808 ± 0.1 | 0.782 ± 0.031 | 0.842 ± 0.076 | 0.773 ± 0.085 | 0.641 ± 0.089 | 0.387 ± 0.042 | 0.101 ± 0.013 | 0.0917 ± 0.012 |
| YAMATO SYNOVIAL | 1.27 ± 0.17 | 1.32 ± 0.11 | 1.35 ± 0.16 | 1.34 ± 0.043 | 1.33 ± 0.19 | 1.38 ± 0.029 | 1.27 ± 0.026 | 1.27 ± 0.14 | 0.976 ± 0.059 | 0.815 ± 0.022 | 0.936 ± 0.084 | 0.89 ± 0.039 | 1.22 ± 0.039 | 0.735 ± 0.064 | 0.357 ± 0.0093 | 0.318 ± 0.0064 |
| ZR751 BREAST | 1.08 ± 0.16 | 1.1 ± 0.096 | 1.14 ± 0.17 | 1.02 ± 0.052 | 1.07 ± 0.071 | 1.03 ± 0.076 | 1.07 ± 0.095 | 1.03 ± 0.15 | 1.17 ± 0.2 | 1.04 ± 0.12 | 0.994 ± 0.1 | 0.618 ± 0.13 | 0.22 ± 0.022 | 0.228 ± 0.032 | 0.213 ± 0.013 | 0.207 ± 0.024 |
